In patent publication US9936701B2, “Herbicidal compounds” (Syngenta Participations AG, priority 2013, dated 2018):
One block for each molecule: values may come before it.

Assays:
[1] = system: a variety of test species; experiment: Pre-emergence herbicidal activity (glasshouse, sprayed one day after sowing, evaluated after 13 days); format: in vivo; parameters: key: 5=total damage to plant; 0=no damage to plant; settings: application pre-emergence, rate 1000 g/Ha, scale 0-5
Method in brief: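 Damage rated 13 days post-treatment on a 0-5 scale, 5 meaning total plant damage. Pots were sprayed pre-emergence, one day after sowing, with an acetone/water-derived aqueous spray containing 0.5% Tween 20. Plants grew under 14 h light, 65% humidity, 24/16 °C, watered twice daily.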

[2] = system: a variety of test species; experiment: Post-emergence herbicidal activity (glasshouse, sprayed after 8 days cultivation, evaluated after 13 days); format: in vivo; parameters: key: 5=total damage to plant; 0=no damage to plant; settings: rate 1000 g/Ha, scale 0-5
Method in brief: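 Foliar application to 8-day-old plants using a 0.5% Tween 20 acetone/water carrier; phytotoxicity is scored visually from 0 to 5 after 13 days of growth at 24/16 °C day/night.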

- melting point: 72 to 74 °C
Compound: CC(C)=CCCc1cc(N2C(=O)C(Cl)=C(C)C2O)no1 (stereo not shown) [A35]
- Pre-emergence herbicidal damage score, ABUTH [1]: 1
- Pre-emergence herbicidal damage score, ALOMY [1]: 1
- Pre-emergence herbicidal damage score, AMARE [1]: 3
- Pre-emergence herbicidal damage score, ECHCG [1]: 0
- Pre-emergence herbicidal damage score, SETFA [1]: 0
- Pre-emergence herbicidal damage score, ZEAMX [1]: 0
- ABUTH (Abutilon theophrasti) damage score, application post-emergence [2]: 4
- ALOMY (Alopecurus myosuroides) damage score, application post-emergence [2]: 1
- AMARE (Amaranthus retroflexus) damage score, application post-emergence [2]: 5
- ECHCG (Echinochloa crus-galli) damage score, application post-emergence [2]: 2
- SETFA (Setaria faberi) damage score, application post-emergence [2]: 0
- ZEAMX (Zea mays) damage score, application post-emergence [2]: 1

- melting point: 110 to 112 °C
Compound: CCOC(C)(C)CCCc1cc(N2C(=O)C(Cl)=C(C)C2O)no1 (stereo not shown) [A36]
- Pre-emergence herbicidal damage score, ABUTH [1]: 5
- Pre-emergence herbicidal damage score, ALOMY [1]: 3
- Pre-emergence herbicidal damage score, AMARE [1]: 5
- Pre-emergence herbicidal damage score, ECHCG [1]: 4
- Pre-emergence herbicidal damage score, SETFA [1]: 1
- Pre-emergence herbicidal damage score, ZEAMX [1]: 1
- ABUTH (Abutilon theophrasti) damage score, application post-emergence [2]: 5
- ALOMY (Alopecurus myosuroides) damage score, application post-emergence [2]: 4
- AMARE (Amaranthus retroflexus) damage score, application post-emergence [2]: 5
- ECHCG (Echinochloa crus-galli) damage score, application post-emergence [2]: 5
- SETFA (Setaria faberi) damage score, application post-emergence [2]: 2
- ZEAMX (Zea mays) damage score, application post-emergence [2]: 1

- melting point: 96 to 98 °C
Compound: CCCC(C)(C)c1cc(N2C(=O)C(Cl)=C(C)C2O)no1 (stereo not shown) [A37]
- Pre-emergence herbicidal damage score, ABUTH [1]: 5
- Pre-emergence herbicidal damage score, ALOMY [1]: 4
- Pre-emergence herbicidal damage score, AMARE [1]: 5
- Pre-emergence herbicidal damage score, ECHCG [1]: 5
- Pre-emergence herbicidal damage score, SETFA [1]: 4
- Pre-emergence herbicidal damage score, ZEAMX [1]: 1
- ABUTH (Abutilon theophrasti) damage score, application post-emergence [2]: 5
- ALOMY (Alopecurus myosuroides) damage score, application post-emergence [2]: 5
- AMARE (Amaranthus retroflexus) damage score, application post-emergence [2]: 5
- ECHCG (Echinochloa crus-galli) damage score, application post-emergence [2]: 5
- SETFA (Setaria faberi) damage score, application post-emergence [2]: 5
- ZEAMX (Zea mays) damage score, application post-emergence [2]: 3

- melting point: 75 to 77 °C
Compound: CCCCC(C)(C)c1cc(N2C(=O)C(Cl)=C(C)C2O)no1 (stereo not shown) [A38]
- Pre-emergence herbicidal damage score, ABUTH [1]: 1
- Pre-emergence herbicidal damage score, ALOMY [1]: 3
- Pre-emergence herbicidal damage score, AMARE [1]: 5
- Pre-emergence herbicidal damage score, ECHCG [1]: 5
- Pre-emergence herbicidal damage score, SETFA [1]: 2
- Pre-emergence herbicidal damage score, ZEAMX [1]: 1
- ABUTH (Abutilon theophrasti) damage score, application post-emergence [2]: 5
- ALOMY (Alopecurus myosuroides) damage score, application post-emergence [2]: 5
- AMARE (Amaranthus retroflexus) damage score, application post-emergence [2]: 5
- ECHCG (Echinochloa crus-galli) damage score, application post-emergence [2]: 5
- SETFA (Setaria faberi) damage score, application post-emergence [2]: 5
- ZEAMX (Zea mays) damage score, application post-emergence [2]: 2

- melting point: 130 to 132 °C
Compound: CC1=C(Cl)C(=O)N(c2cc(C(C)(C)CO)on2)C1O (stereo not shown) [A39]
- Pre-emergence herbicidal damage score, ABUTH [1]: 1
- Pre-emergence herbicidal damage score, ALOMY [1]: 1
- Pre-emergence herbicidal damage score, AMARE [1]: 4
- Pre-emergence herbicidal damage score, ECHCG [1]: 3
- Pre-emergence herbicidal damage score, SETFA [1]: 0
- Pre-emergence herbicidal damage score, ZEAMX [1]: 1
- ABUTH (Abutilon theophrasti) damage score, application post-emergence [2]: 4
- ALOMY (Alopecurus myosuroides) damage score, application post-emergence [2]: 3
- AMARE (Amaranthus retroflexus) damage score, application post-emergence [2]: 5
- ECHCG (Echinochloa crus-galli) damage score, application post-emergence [2]: 5
- SETFA (Setaria faberi) damage score, application post-emergence [2]: 1
- ZEAMX (Zea mays) damage score, application post-emergence [2]: 1

- melting point: 166 to 168 °C
Compound: CCC(C)(C)c1onc(N2C(=O)C(Cl)=C(C)C2O)c1C#N (stereo not shown) [A40]
- Pre-emergence herbicidal damage score, ABUTH [1]: 4
- Pre-emergence herbicidal damage score, ALOMY [1]: 3
- Pre-emergence herbicidal damage score, AMARE [1]: 5
- Pre-emergence herbicidal damage score, ECHCG [1]: 5
- Pre-emergence herbicidal damage score, SETFA [1]: 5
- Pre-emergence herbicidal damage score, ZEAMX [1]: 2
- ABUTH (Abutilon theophrasti) damage score, application post-emergence [2]: 5
- ALOMY (Alopecurus myosuroides) damage score, application post-emergence [2]: 4
- AMARE (Amaranthus retroflexus) damage score, application post-emergence [2]: 5
- ECHCG (Echinochloa crus-galli) damage score, application post-emergence [2]: 5
- SETFA (Setaria faberi) damage score, application post-emergence [2]: 5
- ZEAMX (Zea mays) damage score, application post-emergence [2]: 3

The next lines start with the molecule.

Compound: CC1=C(Cl)C(=O)N(c2cc(C3(C)CC3)on2)C1O (stereo not shown) [A26]
- melting point: 177 to 178 °C
- Pre-emergence herbicidal damage score, ABUTH [1]: 5
- Pre-emergence herbicidal damage score, ALOMY [1]: 4
- Pre-emergence herbicidal damage score, AMARE [1]: 5
- Pre-emergence herbicidal damage score, ECHCG [1]: 5
- Pre-emergence herbicidal damage score, SETFA [1]: 5
- Pre-emergence herbicidal damage score, ZEAMX [1]: 3
- ABUTH (Abutilon theophrasti) damage score, application post-emergence [2]: 5
- ALOMY (Alopecurus myosuroides) damage score, application post-emergence [2]: 4
- AMARE (Amaranthus retroflexus) damage score, application post-emergence [2]: 5
- ECHCG (Echinochloa crus-galli) damage score, application post-emergence [2]: 5
- SETFA (Setaria faberi) damage score, application post-emergence [2]: 5
- ZEAMX (Zea mays) damage score, application post-emergence [2]: 5

Compound: C=CCC(C)(C)c1cc(N2C(=O)C(Cl)=C(C)C2O)no1 (stereo not shown) [A28]
- melting point: 107 to 109 °C
- Pre-emergence herbicidal damage score, ABUTH [1]: 5
- Pre-emergence herbicidal damage score, ALOMY [1]: 4
- Pre-emergence herbicidal damage score, AMARE [1]: 5
- Pre-emergence herbicidal damage score, ECHCG [1]: 5
- Pre-emergence herbicidal damage score, SETFA [1]: 4
- Pre-emergence herbicidal damage score, ZEAMX [1]: 2
- ABUTH (Abutilon theophrasti) damage score, application post-emergence [2]: 5
- ALOMY (Alopecurus myosuroides) damage score, application post-emergence [2]: 5
- AMARE (Amaranthus retroflexus) damage score, application post-emergence [2]: 5
- ECHCG (Echinochloa crus-galli) damage score, application post-emergence [2]: 5
- SETFA (Setaria faberi) damage score, application post-emergence [2]: 5
- ZEAMX (Zea mays) damage score, application post-emergence [2]: 4

Compound: CCC(C)(C)c1cc(N2C(=O)C(Cl)=C(C)C2O)no1 (stereo not shown) [A29]
- melting point: 103 to 105 °C
- Pre-emergence herbicidal damage score, ABUTH [1]: 5
- Pre-emergence herbicidal damage score, ALOMY [1]: 3
- Pre-emergence herbicidal damage score, AMARE [1]: 5
- Pre-emergence herbicidal damage score, ECHCG [1]: 5
- Pre-emergence herbicidal damage score, SETFA [1]: 4
- Pre-emergence herbicidal damage score, ZEAMX [1]: 1
- ABUTH (Abutilon theophrasti) damage score, application post-emergence [2]: 5
- ALOMY (Alopecurus myosuroides) damage score, application post-emergence [2]: 4
- AMARE (Amaranthus retroflexus) damage score, application post-emergence [2]: 5
- ECHCG (Echinochloa crus-galli) damage score, application post-emergence [2]: 5
- SETFA (Setaria faberi) damage score, application post-emergence [2]: 4
- ZEAMX (Zea mays) damage score, application post-emergence [2]: 3

Compound: CC1=C(Cl)C(=O)N(c2cc(C(C)c3ccccc3)on2)C1O (stereo not shown) [A30]
- melting point: 118 to 120 °C
- Pre-emergence herbicidal damage score, ABUTH [1]: 2
- Pre-emergence herbicidal damage score, ALOMY [1]: 2
- Pre-emergence herbicidal damage score, AMARE [1]: 4
- Pre-emergence herbicidal damage score, ECHCG [1]: 1
- Pre-emergence herbicidal damage score, SETFA [1]: 1
- Pre-emergence herbicidal damage score, ZEAMX [1]: 1
- ABUTH (Abutilon theophrasti) damage score, application post-emergence [2]: 5
- ALOMY (Alopecurus myosuroides) damage score, application post-emergence [2]: 3
- AMARE (Amaranthus retroflexus) damage score, application post-emergence [2]: 5
- ECHCG (Echinochloa crus-galli) damage score, application post-emergence [2]: 5
- SETFA (Setaria faberi) damage score, application post-emergence [2]: 4
- ZEAMX (Zea mays) damage score, application post-emergence [2]: 2

Compound: CC1=C(Cl)C(=O)N(c2noc(C(C)(C)C)c2C#N)C1O (stereo not shown) [A31, 5-tert-butyl-3-(4-chloro-2-hydroxy-3-methyl-5-oxo-2H-pyrrol-1-yl)isoxazole-4-carbonitrile]
- melting point: 174 to 176 °C
- Pre-emergence herbicidal damage score, ABUTH [1]: 5
- Pre-emergence herbicidal damage score, ALOMY [1]: 3
- Pre-emergence herbicidal damage score, AMARE [1]: 5
- Pre-emergence herbicidal damage score, ECHCG [1]: 5
- Pre-emergence herbicidal damage score, SETFA [1]: 5
- Pre-emergence herbicidal damage score, ZEAMX [1]: 3
- ABUTH (Abutilon theophrasti) damage score, application post-emergence [2]: 5
- ALOMY (Alopecurus myosuroides) damage score, application post-emergence [2]: 5
- AMARE (Amaranthus retroflexus) damage score, application post-emergence [2]: 5
- ECHCG (Echinochloa crus-galli) damage score, application post-emergence [2]: 5
- SETFA (Setaria faberi) damage score, application post-emergence [2]: 5
- ZEAMX (Zea mays) damage score, application post-emergence [2]: 4

Compound: C=CCOCC(C)(C)c1cc(N2C(=O)C(Cl)=C(C)C2O)no1 (stereo not shown) [A33]
- melting point: 66 to 68 °C
- Pre-emergence herbicidal damage score, ABUTH [1]: 3
- Pre-emergence herbicidal damage score, ALOMY [1]: 2
- Pre-emergence herbicidal damage score, AMARE [1]: 5
- Pre-emergence herbicidal damage score, ECHCG [1]: 4
- Pre-emergence herbicidal damage score, SETFA [1]: 3
- Pre-emergence herbicidal damage score, ZEAMX [1]: 3
- ABUTH (Abutilon theophrasti) damage score, application post-emergence [2]: 5
- ALOMY (Alopecurus myosuroides) damage score, application post-emergence [2]: 4
- AMARE (Amaranthus retroflexus) damage score, application post-emergence [2]: 5
- ECHCG (Echinochloa crus-galli) damage score, application post-emergence [2]: 5
- SETFA (Setaria faberi) damage score, application post-emergence [2]: 4
- ZEAMX (Zea mays) damage score, application post-emergence [2]: 5

Compound: CCOCC(C)(C)c1cc(N2C(=O)C(Cl)=C(C)C2O)no1 (stereo not shown) [A34]
- melting point: 99 to 101 °C
- Pre-emergence herbicidal damage score, ABUTH [1]: 5
- Pre-emergence herbicidal damage score, ALOMY [1]: 3
- Pre-emergence herbicidal damage score, AMARE [1]: 5
- Pre-emergence herbicidal damage score, ECHCG [1]: 5
- Pre-emergence herbicidal damage score, SETFA [1]: 4
- Pre-emergence herbicidal damage score, ZEAMX [1]: 2
- ABUTH (Abutilon theophrasti) damage score, application post-emergence [2]: 5
- ALOMY (Alopecurus myosuroides) damage score, application post-emergence [2]: 4
- AMARE (Amaranthus retroflexus) damage score, application post-emergence [2]: 5
- ECHCG (Echinochloa crus-galli) damage score, application post-emergence [2]: 5
- SETFA (Setaria faberi) damage score, application post-emergence [2]: 4
- ZEAMX (Zea mays) damage score, application post-emergence [2]: 5
